From patent US12448624B2, “Modified nucleic acid having improved treatment efficacy, and anticancer pharmaceutical composition containing same” (INTEROLIGO CORPORATION, priority 2018, dated 2025) come the findings set out here.

The nature of one data set: in vivo. The conditions noted are these: rat, iv. As to the method:
Sprague-Dawley male rats were subjected to induced anesthesia with isoflurane, which is an inhalation anesthetic, then a polyethylene (PE) tube (Clay Adams, Becton Dickinson, NJ, USA) was inserted into a carotid artery (for blood collection) and sutured with a suture, followed by fixing an end of the suture behind the neck. During surgery, anesthesia was maintained using ether and about 0.5 mL of physiological saline containing heparin (20 units/mL) was injected to prevent blood from clotting in a cannula. After the surgery is finished, the rats were placed in metabolic cages and allowed to recover completely from the anesthetic condition (4 to 5 hours), respectively. […] 1 and 2 ml/kg of drugs were administered intravenously. […] 5. 15. 30, 45, 60, 120, 360 and 720 minutes after the administration, 0.3 mL of blood was each collected through a […]. […] Then, the blood in the Eppendorf tube was immediately centrifuged, followed by storing the plasma.
All analytical procedures were implemented under conditions of shielding the tube. That is, all procedures were performed under quantification condition: SRM (selected reaction monitoring) mode (see Table 5 above), fixed phase condition: Hypersil gold C18, 1.9 μm, 100×2.1 mm^2 (Thermo Scientific, Matriks, Oslo, Norway), and mobile phase condition: distilled water (A) containing 0.1% formic acid and acetonitrile (B) (see Table 6 above).
Metformin as an internal standard substance (IS) was dissolved in acetonitrile to prepare another working solution of 645 ng/mL.
150 μL of the internal standard, that is, metformin was added to 50 μL of plasma (645 ng/mL in acetonitrile) and vortexed for 10 minutes, followed by performing centrifugation at 15,000 rpm and […] for 20 minutes. Thereafter, 150 μL of the supernatant was taken and transferred to another Eppendorf tube, and then the organic solvent was dried under a nitrogen stream. Then, 125 μL of tertiary distilled water was added to the dried Eppendorf tube, allowed to be redissolved. Then, the solution was vortexed for 5 minutes, centrifuged at 15,000 rpm and […] for 5 minutes. Thereafter, 100 μL of the supernatant was transferred to the vial for LC-MS/MS, 5 μL of the supernatant was injected and analyzed by LC-MS/MS.
Values of an area under the plasma concentration-time curve (AUCt) were calculated using a log-linear trapezoidal equation from the plasma concentration-time curves after the administration of drug to the final quantification time (specifically, the linear-trapezoidal equation is used in a section where the plasma concentration is increased, while in another section where plasma concentration is decreased, the trapezoidal equation is used by log transforming the concentration value). After oral administration, the highest plasma concentration (Cmax) and the time to reach the highest plasma concentration (Tmax) were determined from the plasma concentration-time curve. Values of the area (AUCinf) under the plasma concentration till infinite time-time curve were determined using the following equation. A terminal elimination rate constant (γZ) and half-life (t1/2) were determined from a slope of elimination of the plasma concentration. AUinf=AUCt+Ct/γZ(Ct: final quantification concentration, γZ: terminal elimination rate constant)

The nature of data set [1]: Stability of atelocollagen/collagen disk formulations in rat plasma. The conditions noted are these: 37° C. The data set is classed as in vitro ADME. As to the method:
Sample treatment, calibration curve creation, and LC-MS/MS analysis conditions are the same as described above.
Sample treatment was conducted as follows. […] Thereafter, the supernatant was taken and then centrifuged again under the same conditions as above. Then, 5 μL of the concentrate was taken and diluted by 10-fold using the same rat plasma in order to measure a concentration in plasma (“plasma concentration”). […] The above sample treatment was conducted in the same manner as the calibration curve creation, followed by performing sample analysis under the same LC-MS/MS conditions.
In order to evaluate the stability of the IO101L/atelocollagen disk formulation in rat plasma, experiments were conducted with 5 groups (Groups 1-5) (see Table 12 below). Normal collagen (SK Co.) was used for comparison with atelocollagen.

The conditions of data set [2]: mouse, in vivo. As to the method:
Male […]/severe combined immunodeficiency mice, NOD/Shi-scid, IL-2RγKO mice (NOG mice®) (Central Lab Animal Inc., Saeronbio Inc., Seoul) and female nu/nu athymic mice (Orientbio) were maintained in 12 hours light/12 hours dark cycle under pathogen-free conditions. At the time of surgery, 10 new pancreatic tumor specimens stored in the patient's primary tumor (Institutional Examination Committee No. 4-2017-0594) was placed on ice-cooled RPMI medium, PDX SOP of PDTX Cleanbench Department Laboratory Animal Resources (Yonsei Biomedical Research Institute, Seoul) was washed with cold PBS, and non-necrotic fragments were cut into small pieces (2×2×2 mm) to remove blood or lipid portions. […]
After skin incision in PDX mice, the control (No treatment), Gem-IP (; sol-gel type), IO101-IP (; sol-gel type), IO101/AC disk (2.0 mg/3.0%), IO101-Con/AC (2.0 mg/3.0%) and Gem/atelocollagen disk (0.12 mg/3.0%), respectively, were implanted locally by subcutaneous anesthetic dissection between skin and tumor. A tumor size was measured three times per week by caliper measurement (Mitutoyo, Absolute AOS Digmatic, Kawasaki, Japan), and a volume was calculated as described above. Tumor growth in drug-treated animals was expressed as a tumor growth rate (tumor volume/initial tumor volume) compared to vehicle-treated mice. […]

The test system of data set [3] is patient-derived pancreatic cancer cells. Kind of data set: PDX pancreatic cancer mouse model, TUNEL analysis. The settings on record: 1 month after implantation. The data set is classed as in vivo.
Excerpt: Untreated control mice were also included for comparison.
1 month after the disk implantation, mice were sacrificed, and tissue samples and blood were collected.

One may read the AUC(0-inf) as the area under the concentration-time curve extrapolated to infinity. For orientation: AUC(0-t) means the area under the concentration-time curve up to a stated or last time point. The Cmax is the highest concentration seen after dosing. For orientation: MRT means the average time that molecules of a dose stay in the body. The Tmax is the time at which the peak concentration occurs. The Vd is a proportionality between amount in the body and measured concentration, not a real space. Low values mean confinement near the circulation, high ones extensive tissue distribution. In general, clearance refers to the volume of plasma or blood freed of the substance per unit of time. High values mean a high capacity for elimination, low ones a low capacity for elimination. By half-life is commonly meant the time needed for the level to fall by half in the phase considered. Low values mean rapid decline, high ones slow decline.

Regarding `Nc1ccn([C@@H]2O[C@H](CO)[C@@H](O)C2(F)F)c(=O)n1` [Gemcitabine, 2,2′-difluorodeoxycytidine], in “in vivo” (male, Sprague-Dawley, 8 mg/kg), the AUC(0-inf) is 24500 ng·h/mL, the AUC(0-t) was 23200 ng·h/mL, the concentration peaked (Cmax) at 13300 ± 5640 ng/mL and the MRT is 3.48 h. Moreover, in the data set “in vivo” (male, Sprague-Dawley, 8 mg/kg), the Tmax was 1 min, the Vd amounted to 1.15 ± 0.223 L/kg, the clearance is 5.59 ± 0.86 mL/min/kg and the “dFdU AUCt” value stood at 265 ± 57.1 µg·min/mL. In addition, in the data set “in vivo” (male, Sprague-Dawley, 8 mg/kg), the “dFdU Cmax” value came to 477 ± 87.9 ng/mL, the “dFdU Tmax” value was 240 (120-360) min and the half-life came out at 2.95 ± 0.475 h. Also, the concentration at 30 min in “in vivo” (male, Sprague-Dawley, Gemcitabine blood concentration, 30 minutes) stood at 5600 ng/mL. The compound also displayed a concentration at 45 min in the data set “in vivo” (male, Sprague-Dawley, Gemcitabine blood concentration, 45 minutes) of 3410 ng/mL. This compound came in with a concentration at 60 min in “in vivo” (male, Sprague-Dawley, Gemcitabine blood concentration, 60 minutes) of 3550 ng/mL. In the data set “in vivo” (male, Sprague-Dawley, Gemcitabine blood concentration, 120 minutes), this compound came in with a concentration at 120 min of 2800 ng/mL. Also, in the data set “in vivo”, the “dFdU blood concentration, 1 minute” value is “BLLoQ” and the “dFdU blood concentration, 5 minutes” value is reported as “BLLoQ”. For the same compound, the “dFdC Blood concentration” value in data set [1] (2 hours incubation) was 218 µg/mL. Further, the “dFdC Blood concentration, supernatant” value in data set [1] (supernatant (Ultracell-3K), 2 hours) is 232 µg/mL. For the same compound, the PLT in data set [2] is on record as 684.1 ± 246.3 X1000/μl. The “apoptosis (TUNEL analysis) in tumor” value in data set [3] is reported as “an apoptosis process was confirmed”.
